pIC50: −log10 of the molar value.
Experiments:
[1] = molecular target: Human recombinant PDE4 (Genbank accession no NM—006203) (Homo sapiens, UniProt Q08499); assay: PDE4 Assay (SPA, cleavage of cAMP); format: biochemical; settings: human recombinant PDE4, 1 hour incubation, cAMP 1×10^-5M, test compound up to 10 μM; read-out: IC50 (PDE4)
Method: Human recombinant PDE4 (Genbank accession no NM_006203) was incubated for 1 hour, with the test compound at concentrations up to 10 μM, with cAMP (1×10^-5M), and with a low amount (0.021 MBq) of radioactively labelled cAMP. At the end of the incubation, the cleavage of the substrate was evaluated by the binding of the AMP product to SPA beads, which generate […] when bound to the radioactive tracer. The AMP product inhibited the binding of the radioactive tracer to the beads, and the luminescent signal was competed. The results were calculated as the molar concentrations resulting in 50% inhibition of the substrate cleavage compared to controls samples, and are expressed as IC50 (M).

[2] = tested on: TNF-α release from human peripheral blood mononuclear cells (PBMC); assay: TNF-α Release in LPS stimulated PBMC; format: cell-based; settings: 30 minutes pre-incubation, stimulated 18 hours with lipopolysaccharide, TNF-α in supernatant by enzyme immunoassay
Method: Human peripheral blood mononuclear cells (PBMC) were isolated from buffy coats. The blood is mixed with saline at a ratio of 1:1, and the PBMC were isolated using Lymphoprep Tubes™ (Nycomed, Norway). The PBMC were suspended in RPMI1640 with 2% foetal calf serum (FCS), pen/strep and 2 mM L-glutamine at a concentration of […]. The cells were pre-incubated for 30 minutes with the test compounds in 96 well tissue culture plates and stimulated for 18 hours with lipopolysaccharide […] (Sigma). The level of TNF-α was measured in the culture supernatant by enzyme immunoassays using primary and secondary biotinylated antibodies from R&D systems. Results are expressed as IC50 values calculated from inhibition curves using as positive controls the secretion in LPS stimulated wells and as negative controls the secretion in unstimulated cells.

Human recombinant PDE4 (Genbank accession no NM—006203), sequence (Q08499 1-673 isoform Q08499-2): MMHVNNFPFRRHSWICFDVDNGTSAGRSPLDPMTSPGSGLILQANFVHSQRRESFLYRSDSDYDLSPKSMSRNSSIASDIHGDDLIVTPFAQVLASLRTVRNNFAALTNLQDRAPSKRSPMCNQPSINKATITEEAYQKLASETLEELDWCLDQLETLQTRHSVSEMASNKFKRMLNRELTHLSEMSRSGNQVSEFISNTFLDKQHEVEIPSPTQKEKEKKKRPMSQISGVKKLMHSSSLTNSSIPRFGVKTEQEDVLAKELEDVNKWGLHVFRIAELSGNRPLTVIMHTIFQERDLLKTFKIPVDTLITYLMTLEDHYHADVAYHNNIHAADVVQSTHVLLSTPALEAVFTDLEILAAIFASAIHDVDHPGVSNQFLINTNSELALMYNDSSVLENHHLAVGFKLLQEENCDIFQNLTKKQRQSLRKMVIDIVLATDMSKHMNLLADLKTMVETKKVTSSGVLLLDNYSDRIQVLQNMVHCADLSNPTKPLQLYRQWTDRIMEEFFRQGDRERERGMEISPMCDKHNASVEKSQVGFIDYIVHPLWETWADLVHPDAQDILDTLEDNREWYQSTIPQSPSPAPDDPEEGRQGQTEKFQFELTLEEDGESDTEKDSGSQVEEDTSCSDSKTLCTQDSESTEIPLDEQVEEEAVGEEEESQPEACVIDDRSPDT

Row | Structure (SMILES) | pIC50 [1] | pIC50 [2]
1 | COc1ccc(C(=O)Cc2ccncc2Br)c2c1OC1(CCSCC1)O2 [Compound 114, 2-(3-bromopyridine-4-yl)-1-(7-methoxy-2′,3′,5′,6′-tetrahydro-spiro[1,3-benzodioxole-2,4′-(4H)-thiopyran]-4-yl)ethanone] | 7.35 | 7.02
2 | COc1ccc(C(=O)Cc2nccnc2Br)c2c1OC1(CCSCC1)O2 [Compound 115] | 5.85 | 6.33
3 | COc1ccc(C(=O)Cc2cnccn2)c2c1OC1(CCSCC1)O2 [Compound 116, 2-(-pyrazin-2-yl)-1-(7-methoxy-2′,3′,5′,6′-tetrahydro-spiro[1,3-benzodioxole-2,4′-(4H)-thiopyran]-4-yl)ethanone] | 5.89 | 5.53
4 | COc1ccc(C(=O)Cc2ccncc2)c2c1OC1(CCSCC1)O2 [Compound 117, 2-(-pyridin-4-yl-)-1-(7-methoxy-2′,3′,5′,6′-tetrahydro-spiro[1,3-benzo-dioxole-2,4′-(4H)-thiopyran]-4-yl)ethanone] | 6.68 | 6.54
5 | COc1ccc(C(=O)Cc2ccnc3ccccc23)c2c1OC1(CCSCC1)O2 [Compound 118, 2-(quinolin-4-yl-)-1-(7-methoxy-2′,3′,5′,6′-tetrahydro-spiro[1,3-benzo-dioxole-2,4′-(4H)-thiopyran]-4-yl)ethanone] | 5.74 | 5.26
6 | COc1ccc(C(=O)Cc2c(Cl)cccc2Cl)c2c1OC1(CCSCC1)O2 [Compound 119, 2-(2,6-Dichloro-phenyl)-1-(7-methoxy-2′,3′,5′,6′-tetrahydro-spiro[1,3-benzo-dioxole-2,4′-(4H)-thiopyran]-4-yl)ethanone] | 7.15 | 6.29
7 | COc1ccc(C(=O)Cc2ccccc2Cl)c2c1OC1(CCSCC1)O2 [Compound 120, 2-(2-chloro-phenyl)-1-(7-methoxy-2′,3′,5′,6′-tetrahydro-spiro[1,3-benzo-dioxole-2,4′-(4H)-thiopyran]-4-yl)ethanone] | 6.51 | 5.90
8 | COc1ccc(C(=O)Cc2c(Cl)cncc2Cl)c2c1OCC1(COC1)CO2 [Compound 121, 2-(3,5-Dichloropyridin-4-yl)-1-{9-methoxy-spiro[2H-1,5-benzodioxepin-3(4H),3′-oxetane]-6-yl}ethanone] | 7.28 | 7.19
9 | COc1ccc(C(=O)Cc2c(Cl)c[n+]([O-])cc2Cl)c2c1OCC1(COC1)CO2 [Compound 122, 2-(3,5-Dichloro-1-oxido-pyridin-4-yl)-1-{9-methoxy-spiro[2H-1,5-benzodioxepin-3(4H),3′-oxetane]-6-yl}ethanone] | 7.30 | 7.70
10 | COc1ccc(C(=O)Cc2c(Cl)cncc2Cl)c2c1OCC1(CO2)CSC1 [Compound 123, 2-(3,5-Dichloropyridin-4-yl)-1-{9-methoxy-spiro[2H-1,5-benzodioxepin-3(4H),3′-thietane]-6-yl}ethanone] | 7.77 | 7.46
11 | COc1ccc(C(=O)Cc2c(Cl)cncc2Cl)c2c1OCC1(CO2)CS(=O)(=O)C1 [Compound 124, 2-(3,5-Dichloropyridin-4-yl)-1-{9-methoxy-spiro[2H-1,5-benzodioxepin-3(4H),3′-thietane-1′,1′-dioxide]-6-yl}ethanone] | 6.98 | 6.87
12 | COc1ccc(C(=O)Cc2c(Cl)c[n+]([O-])cc2Cl)c2c1OCC1(CO2)CS(=O)(=O)C1 [Compound 125, 2-(3,5-Dichloropyridin-1-oxido-4-yl)-1-{9-methoxy-spiro[2H-1,5-benzodioxepin-3(4H),3′-thietane-1′,1′-dioxide]-6-yl}ethanone] | 6.70 | 6.87
13 | COc1ccc(C(=O)Cc2c(Cl)cncc2Cl)c2c1OCC1(CO2)OCCO1 [Compound 126, 2-(3,5-Dichloropyridin-4-yl)-1-{9-methoxy-spiro[2H-1,5-benzodioxepin-3(4H),2′-(1,3-dioxolane)]-6-yl}ethanone] | 7.17 | 6.95
